Converted amounts (≈) assume the structure as drawn. Read-outs that look alike come from different tables or passages of the source.
Legend:
[1] = system: B. subtilis ATCC 6623 (Bs); assay: Minimal inhibitory concentration (MIC) assay; type: cell-based; conditions: Bacillus subtilis
Method: (§1) Minimal inhibitory concentration (MIC) assay The standard microdilution method recommended by the Clinical and Laboratory Standards Institute (CLSI) was used to determine the MIC of the antibiotics. The starting concentration of compounds was 50 μg/ml and 2-fold dilution was done down the 96 honeycomb well plate column. The MIC assay was conducted in triplicates.

[2] = system: Enterococcus faecalis ATCC 29212 (Es12); assay: Minimal inhibitory concentration (MIC) assay; type: cell-based
Method: as §1

[3] = system: Enterococcus faecium ATCC 700221 (Em21); assay: Minimal inhibitory concentration (MIC) assay; type: cell-based; conditions: Enterococcus faecium
Method: as §1

[4] = system: S. aureus ATCC 25923 (Sa23); assay: Minimal inhibitory concentration (MIC) assay; type: cell-based; conditions: Staphylococcus aureus
Method: as §1

[5] = system: S. aureus ATCC 33591 (Sa91); assay: Minimal inhibitory concentration (MIC) assay; type: cell-based; conditions: Staphylococcus aureus
Method: as §1

[6] = system: S. aureus ATCC 33592 (Sa92); assay: Minimal inhibitory concentration (MIC) assay; type: cell-based; conditions: Staphylococcus aureus
Method: as §1

[7] = system: S. aureus ATCC 700699 (Sa99); assay: Minimal inhibitory concentration (MIC) assay; type: cell-based; conditions: Staphylococcus aureus
Method: as §1

[8] = system: S. aureus BAA-2312 (Sa12); assay: Minimal inhibitory concentration (MIC) assay; type: cell-based; conditions: Staphylococcus aureus
Method: as §1

[9] = system: S. epidermidis 700296 (Se); assay: Minimal inhibitory concentration (MIC) assay; type: cell-based; conditions: Staphylococcus epidermidis, read-out: Antimicrobial activity (MIC) Se
Method: as §1

[10] = system: S. aureus strains; assay: MIC, summary over S. aureus strains; type: cell-based; conditions: two MRSA strains
Method: as §1

[11] = system: S. aureus ATCC 700699 and S. aureus ATCC 33591; assay: Time-Kill Assay; type: cell-based; conditions: 4×MIC
Method: Time kill assay for test antibiotics against S. aureus ATCC 700699 and S. aureus ATCC 33591 strains was conducted using procedures published previously.^26 Briefly, a log-phase bacterial culture was diluted to ˜5×10^6 CFU/ml in warm sterile CAMHB broth and was exposed to antibiotics at 4×MIC concentration then incubated at 35° C. Samples of 20 μl were taken every 2 hours, diluted 10 fold to 10^−5, and the 6×6 drop plate method was performed to determine viable CFU/ml after 18-24 hours of incubation at 35° C. Each antibiotic time-kill assay was conducted in triplicate.

[12] = system: MRSA persisters; assay: Persister Cell Killing Assay; conditions: after 4 hrs exposure; 128×MIC
Method: A persister cell killing assay was performed following the methodology described by Kim et. al. with some modifications.^28 S. aureus strain was grown to stationary phase in CAMHB medium by shaking at 200 rpm overnight at 35° C. An aliquot of stationary phase culture (1 ml) was washed thrice with 1×PBS by centrifugation. After washing, the cells were diluted to ˜5×10^8 CFU/ml (confirmed by plate count). Diluted persister cells (2 ml) plus antibiotics at the desired concentration were incubated in sterile 10×75 mm plastic culture tubes at 35° C. with shaking at 200 rpm. At specific times, 400 μl aliquots were placed into microcentrifuge tubes and the cells washed and serially diluted in PBS. The diluted sample was plated on TSA agar plate with 5% sheep blood by the 6×6 drop plate method. Plates were incubated for 18-20 hours at 35° C., and then colonies were counted to calculate concentrations in CFU/ml. The experiment was performed in triplicates.

[13] = ATCC6623, B. subtilis ATCC 6623, read-out: Antimicrobial activity (MIC) Bs
[14] = ATCC29212, Enterococcus faecalis ATCC 29212, read-out: Antimicrobial activity (MIC) Es12
[15] = ATCC700221, Enterococcus faecium ATCC 700221, read-out: Antimicrobial activity (MIC) Em21
[16] = ATCC25923, S. aureus ATCC 25923, antibiotic susceptible strain, read-out: Antimicrobial activity (MIC) Sa23
[17] = ATCC33591, S. aureus ATCC 33591, antibiotic-resistant strain, read-out: Antimicrobial activity (MIC) Sa91
[18] = ATCC33592, S. aureus ATCC 33592, antibiotic-resistant strain, read-out: Antimicrobial activity (MIC) Sa92
[19] = ATCC700699, S. aureus ATCC 700699, antibiotic-resistant strain, read-out: Antimicrobial activity (MIC) Sa99
[20] = BAA2312, S. aureus BAA-2312, antibiotic-resistant strain, read-out: Antimicrobial activity (MIC) Sa12

Compound	MIC [1, 13] [µg/mL]	MIC [2, 14] [µg/mL]	MIC [3, 15] [µg/mL]	MIC [4, 16] [µg/mL]	MIC [5, 17] [µg/mL]	MIC [6, 18] [µg/mL]	MIC [7, 19] [µg/mL]	MIC [8, 20] [µg/mL]	MIC ([9]; S. epidermidis 700296) [µg/mL]	also measured
C=C(C)[C@@H]1CC=C2c3sc(-c4ccc5c(c4)OCO5)nc3C[C@@H](C)[C@]2(C)C1 [Compound 17, (5R,5aS,7R)-2-(1,3-benzodioxol-5-yl)-7-isopropenyl-5,5a-dimethyl-5,6,7,8-tetrahydro-4H-benzo[g][1,3]benzothiazole]	12.5 (≈ 32.9 µM)	> 100	> 100	> 100	25 (≈ 65.9 µM)	> 100	> 100	> 100	25 (≈ 65.9 µM)	activity against MRSA strains [10]: moderate activity
C=C(C)[C@@H]1CC=C2c3sc(-c4ccc(F)cc4)nc3C[C@@H](C)[C@]2(C)C1 [Compound 18, (5R,5aS,7R)-2-(4-fluorophenyl)-7-isopropenyl-5,5a-dimethyl-5,6,7,8-tetrahydro-4H-benzo[g][1,3]benzothiazole]	> 100	> 100	> 100	> 100	50 (≈ 141 µM)	> 100	> 100	25 (≈ 70.7 µM)	> 100	
C=C(C)[C@@H]1CC=C2c3sc(-c4ccc(Cl)cc4)nc3C[C@@H](C)[C@]2(C)C1 [Compound 19, (5R,5aS,7R)-2-(4-chlorophenyl)-7-isopropenyl-5,5a-dimethyl-5,6,7,8-tetrahydro-4H-benzo[g][1,3]benzothiazole]	12.5 (≈ 33.8 µM)	> 100	> 100	25 (≈ 67.6 µM)	50 (≈ 135 µM)	> 100	25 (≈ 67.6 µM)	25 (≈ 67.6 µM)	50 (≈ 135 µM)	
C=C(C)[C@@H]1CC=C2c3sc(-c4ccc(Br)cc4)nc3C[C@@H](C)[C@]2(C)C1 [Compound 20, (5R,5aS,7R)-2-(4-bromophenyl)-7-isopropenyl-5,5a-dimethyl-5,6,7,8-tetrahydro-4H-benzo[g][1,3]benzothiazole]	> 100	> 100	> 100	> 100	50 (≈ 121 µM)	> 100	> 100	> 100	> 100	
C=C(C)[C@@H]1CC=C2c3sc(-c4ccc(F)c(F)c4)nc3C[C@@H](C)[C@]2(C)C1 [Compound 21, (5R,5aS,7R)-2-(3,4-difluorophenyl)-7-isopropenyl-5,5a-dimethyl-5,6,7,8-tetrahydro-4H-benzo[g][1,3]benzothiazole]	> 100	> 100	> 100	100 (≈ 269 µM)	> 100	1.56 (≈ 4.2 µM)	> 100	> 100	> 100	
C=C(C)[C@@H]1CC=C2c3sc(Nc4ccc(F)cc4)nc3C[C@@H](C)[C@]2(C)C1 [Compound 24, (5R,5aS,7R)—N-(4-fluorophenyl)-7-isopropenyl-5,5a-dimethyl-5,6,7,8-tetrahydro-4H-benzo[g][1,3]benzothiazol-2-amine]	100 (≈ 271 µM)	> 100	> 100	50 (≈ 136 µM)	> 100	> 100	> 100	> 100	> 100	
C=C(C)[C@@H]1CC=C2c3sc(Nc4ccc(F)cc4F)nc3C[C@@H](C)[C@]2(C)C1 [Compound 25, (5R,5aS,7R)—N-(2,4-difluorophenyl)-7-isopropenyl-5,5a-dimethyl-5,6,7,8-tetrahydro-4H-benzo[g][1,3]benzothiazol-2-amine]	> 100	> 100	> 100	100 (≈ 259 µM)	> 100	> 100	> 100	> 100	> 100	
C=C(C)[C@@H]1CC=C2c3sc(Nc4ccc(OC(F)(F)F)cc4)nc3C[C@@H](C)[C@]2(C)C1 [Compound 26, (5R,5aS,7R)-7-isopropenyl-5,5a-dimethyl-N-[4-(trifluoromethoxy)phenyl]-5,6,7,8-tetrahydro-4H-benzo[g][1,3]benzothiazol-2-amine]	100 (≈ 230 µM)	> 100	> 100	50 (≈ 115 µM)	> 100	> 100	> 100	> 100	> 100	
CN[C@H](CC(C)C)C(=O)N[C@H]1C(=O)N[C@@H](CC(N)=O)C(=O)N[C@H]2C(=O)N[C@H]3C(=O)N[C@H](C(=O)N[C@H](C(=O)O)c4cc(O)cc(O)c4-c4cc3ccc4O)[C@H](O)c3ccc(c(Cl)c3)Oc3cc2cc(c3O[C@@H]2O[C@H](CO)[C@@H](O)[C@H](O)[C@H]2O[C@H]2C[C@](C)(N)[C@H](O)[C@H](C)O2)Oc2ccc(cc2Cl)[C@H]1O [VC, vancomycin, reference compound]										MIC ([1]; ATCC6623, read-out: Antimicrobial activity (MIC) Bs): 0.39 µg/mL (≈ 0.269 µM); MIC ([2]; Enterococcus faecalis, ATCC29212, read-out: Antimicrobial activity (MIC) Es12): 3.12 µg/mL (≈ 2.15 µM); MIC ([3]; ATCC700221, read-out: Antimicrobial activity (MIC) Em21): > 100 µg/mL; MIC ([4]; ATCC25923, read-out: Antimicrobial activity (MIC) Sa23): 3.12 µg/mL (≈ 2.16 µM); MIC ([5]; ATCC33591, read-out: Antimicrobial activity (MIC) Sa91): 1.56 µg/mL (≈ 1.08 µM); MIC ([6]; ATCC33592, read-out: Antimicrobial activity (MIC) Sa92): 1.56 µg/mL (≈ 1.08 µM); MIC ([7]; ATCC700699, read-out: Antimicrobial activity (MIC) Sa99): 0.78 µg/mL (≈ 0.538 µM); MIC ([8]; BAA2312, read-out: Antimicrobial activity (MIC) Sa12): 0.78 µg/mL (≈ 0.538 µM); MIC [9]: 1.56 µg/mL (≈ 1.08 µM); eliminated bacteria at [11]: 10 h; CFU count [12]: 2.4×10^7 CFU
gentamycin [reference compound]										CFU count [12]: 2.2×10^8 CFU

— US11970473B2, “Nootkatone derivatives and methods of using the same” (Arkansas State University—Jonesboro, priority 2021, dated 2024)
